# Test results taken from patent US20240057598A1, “USE OF 2-AMINO-3-METHYLHEXANOIC ACID AS PLANT IMMUNITY INDUCER” (NANJING AGRICULTURAL UNIVERSITY, priority 2020, published 2024).
# Legend:
# tomato = test: Induced resistance of tomato to high temperature stress; format: in vivo
# Experimental: 2-amino-3-methylhexanoic acid was dissolved in distilled water and diluted with distilled water into solutions of 1 nM, 10 nM, 100 nM and 1,000 nM by gradient. A blank control was additionally set, and 0.02% Tween 20 was added as a surfactant. 4 groups of repetitions were set for each concentration, and a normal temperature blank control was set at the same time. Ryegrass seeds were weighed according to 0.8 g per pot, sowed in a pot with a diameter of 8.5 cm, and planted in a greenhouse at a temperature of 25° C., a humidity of 60%-70%, and a light intensity of 200 μmolm^−2s^−1 (12 h light/12 h dark). On the 8th day of the seedling stage, the ryegrass was sprayed with the 2-amino-3-methylhexanoic acid solutions on the leaves twice in 24 h. 24 h after the second treatment, the plants were transferred to a light incubator at a temperature of 45° C. for conducting high temperature stress treatment for 12 h, and then the plants were taken out and transferred to a greenhouse at a temperature of 25° C. for 7 days of recovery. The injured conditions of the plants were observed and counted, and the heat injury grade was calculated. […] After the counting, the fresh weight of the aboveground part of the plant was weighed, and then the aboveground part was baked in an 85° C. oven for 48 h to determine the dry weight.
# Tomato seeds were sowed in small pots, and three tomato seedlings with the same growth condition were transplanted into one pot after emergence. The planting method and conditions were the same as above. When the tomato grew for 18 days in the seedling stage, the experiment was conducted. High temperature stress was conducted at 42° C. for 9 h, and the treatment method and subsequent statistical indexes were the same as those of the above.
# [1] = system: tea "Baiye 1" cutting seedlings; test: Effect on amino acid content of tea leaves at normal temperature; format: in vivo; parameters: Amino acid content of tea leaves: unit not given here; conditions: 10 nM, room temperature
# Experimental: At normal temperature, the effect of 2-amino-3-methylhexanoic acid on tea quality was determined using “Baiye 1” cutting seedlings as the tea trees tested. Tea seedlings with relatively consistent growth were transplanted into a plastic pot with a diameter of 18 cm and placed in a greenhouse at a temperature of 25° C. and a humidity of 60%-70% for adaptive growth for about a week. Two concentrations of 0 and 10 nM were set in the experiment, and 0.02% Tween 20 was added as a surfactant. 1 week after transplanting, the stems and leaves of the tea seedlings were sprayed once every 24 h, twice in total. After spray, the tea leaves were placed in a greenhouse at 25° C., and samples were taken on the 1st, 3rd, 5th and 7th days to determine the total amino acid content of one leaf and one bud at the top of tea leaves.
# Achromobacter butyri = conditions: cited from earlier work
# Escherichia coli K-12 = conditions: cited from earlier work
# Aerobacter aerogenes = conditions: cited from earlier work
# powdery mildew fungus = test: Induced resistance of wheat to powdery mildew fungus infection; format: in vivo
# Experimental: 2-amino-3-methylhexanoic acid was dissolved in distilled water and diluted with distilled water into solutions of 1 nM, 10 nM, 100 nM, 1,000 nM and 10,000 nM by gradient, and blank control was additionally set. Wheat seeds were germinated, planted in a sterilized soil culture pot and cultured in a greenhouse at 23(±1)° C. with light for 12 h. When the seedlings grew to the stage of one leaf and one bud, the stems and leaves of the wheat seedlings were sprayed with the 2-amino-3-methylhexanoic acid solutions of the above concentrations. The treatment was repeated once after 24 h and conducted twice in total. After 24 h, fresh wheat powdery mildew spores were evenly scattered on the wheat leaves in three pots, with 20 plants per pot. After 10 days, the disease grade of wheat treated at each concentration was investigated. The disease degree was recorded according to the wheat powdery mildew grading standard in the Guidelines for the Field Efficacy Trials of Pesticides (I), and the disease index and relative immune effect were calculated by a method the same as that for calculating the disease index and relative immune effect of tomato spotted wilt. At the same time, the middle segment of the last but one leaf of wheat was taken and the distribution of mycelia on the wheat leaves was observed by referring to Wolf and Fric's rapid staining method of powdery mildew. Grading standard of wheat powdery mildew (per leaf): • Grade 1: The diseased spot area accounts for 5% or less of the whole leaf area. • Grade 3: The diseased spot area accounts for 6-15% of the whole leaf area. • Grade 5: The diseased spot area accounts for 16-25% of the whole leaf area. • Grade 7: The diseased spot area accounts for 26-50% of the whole leaf area. • Grade 9: The diseased spot area accounts for 50% or more of the whole leaf area.
# A. ureafaciens = conditions: cited from earlier work
# S. marcescens = conditions: cited from earlier work
# [2] = 10 nM, 42° C. 9 h, 7 days recovery
# [3] = 100 nM, 42° C. 9 h, 7 days recovery
# [4] = 1,000 nM, 42° C. 9 h, 7 days recovery
# [5] = concentration greater than 1,000 nM, susceptible wheat variety
structure (smiles),measurement,setting,value
CCCC(C)C(N)C(=O)O (centres unmarked) [2-amino-3-methylhexanoic acid],Optimum concentration inducing resistance to high temperature stress,tomato,"1,000 nM"
same,Dry weight of overground part,tomato; [2],0.05 ± 0.01b g
same,Heat injury index,tomato; [2],95
same,Dry weight of overground part,tomato; [3],0.06 ± 0.02 g·h
same,Fresh weight of overground part,tomato; [3],0.61 ± 0.16abc g
same,Heat injury index,tomato; [3],90
same,Dry weight of overground part,tomato; [4],0.08 ± 0.003ab g
same,Heat injury index,tomato; [4],60
same,Increase of amino acid content compared with control,[1]; 3rd day,14%
same,Increase of amino acid content compared with control,[1]; 5th day,26%
same,Amino acid content of tea leaves,[1]; day 1,2.13
same,Amino acid content of tea leaves,[1]; day 3,2.44
same,Amino acid content of tea leaves,[1]; day 5,2.69
same,Amino acid content of tea leaves,[1]; day 7,2.08
same,Inhibitory effect,Achromobacter butyri,slight inhibitory effect
same,Inhibitory effect,Escherichia coli K-12,obvious inhibitory effect
same,Inhibitory effect,Aerobacter aerogenes,no inhibitory effect
same,Relative immune effect,"powdery mildew fungus; 1 nM, wheat",3.5%
same,Relative immune effect,"powdery mildew fungus; 10 nM, wheat",15.56%
same,Relative immune effect,"powdery mildew fungus; 100 nM, wheat",27.63%
same,Relative immune effect,"powdery mildew fungus; 1,000 nM, wheat",55.06%
same,Relative immune effect,"powdery mildew fungus; 10,000 nM, wheat",65.37%
same,Disease index,powdery mildew fungus; [5],lower than 50
same,Relative immune effect,powdery mildew fungus; [5],more than 50%
same,Inhibitory effect,A. ureafaciens,slight inhibitory effect
same,Inhibitory effect,S. marcescens,no inhibitory effect
